Patent US20120083522A1, “MODULATION OF INFLAMMATORY RESPONSES BY FACTOR XI” (Isis Pharmaceuitcals, inc., priority 2009, published 2012)
In the oligonucleotide strings, read from the 5' end, every base follows the letter of its sugar. An asterisk marks phosphorothioate; unmarked linkages are phosphodiester. Other units and linkages are bracketed, terminal groups are in braces. A string of capitals states the bases alone. e = 2'-O-(2-methoxyethyl) (MOE); [5mC] = 5-methylcytosine; d = 2'-deoxy (DNA)

What was measured:
Assay type in all cases: cell-based
human Factor XI mRNA [1] = test: Antisense inhibition in HepG2 cells by microwalk gapmers, 75 nM, lipofectin (Example 3); details: HepG2 cells, 75 nM
In short: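 HepG2 cells (10,000 per well) were transfected with 75 nM gapmer using lipofectin and treated for about 24 h. Factor XI mRNA was quantified by real-time PCR, normalized to RiboGreen total RNA and expressed as percent inhibition versus untreated controls.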

human Factor XI mRNA [2] = test: Dose-dependent inhibition in HepG2 cells, lipofectin (Example 4); details: 16 hours
Experimental: (§1) Cells were plated at a density of 10,000 cells per well and transfected using lipofectin reagent with 9.375 nM, 18.75 nM, 37.5 nM and 75 nM concentrations of antisense oligonucleotide, as specified in Table 9. After a treatment period of approximately 16 hours, RNA was isolated from the cells and Factor XI mRNA levels were measured by quantitative real-time PCR. Human Factor XI primer probe set RTS 2966 was used to measure mRNA levels. Factor XI mRNA levels were adjusted according to total RNA content, as measured by RIBOGREEN®. Results are presented as percent inhibition of Factor XI, relative to untreated control cells.

human Factor XI mRNA [3] = test: Dose-dependent inhibition in HepG2 cells, electroporation (Example 4); details: 16 hours
Experimental: as §1, with “The gapmers were also transfected via electroporation and their dose dependent inhibition of human Factor XI mRNA was measured. Cells” for “Cells”, “20,000” for “10,000”, “via electroporation” for “using lipofectin reagent”, “0.7 μM, 2.2 μM, 6.7 μM,” for “9.375 nM, 18.75 nM, 37.5 nM”, “20 μM” for “75 nM”, “10.” for “9.”

[4] = oligonucleotides targeted to nucleobases 1275 to 1318 of SEQ ID NO: 1
[5] = oligonucleotides targeted to nucleobases 1018 to 1042 of SEQ ID NO: 1
[6] = oligonucleotides targeted to nucleobases 1062 to 1091 of SEQ ID NO: 1

Substance	% inhibition of human Factor XI mRNA levels (human Factor XI mRNA [1]; [4]) [%]	percent inhibition of Factor XI mRNA, relative to untreated control cells (human Factor XI mRNA [2]; 9.375 nM) [%]	percent inhibition of Factor XI mRNA, relative to untreated control cells (human Factor XI mRNA [2]; 18.75 nM) [%]	percent inhibition of Factor XI mRNA, relative to untreated control cells (human Factor XI mRNA [2]; 37.5 nM) [%]	percent inhibition of Factor XI mRNA, relative to untreated control cells (human Factor XI mRNA [2]; 75 nM) [%]	percent inhibition of Factor XI mRNA, relative to untreated control cells (human Factor XI mRNA [3]; 0.7 μM) [%]	percent inhibition of Factor XI mRNA, relative to untreated control cells (human Factor XI mRNA [3]; 2.2 μM) [%]	percent inhibition of Factor XI mRNA, relative to untreated control cells (human Factor XI mRNA [3]; 6.7 μM) [%]	percent inhibition of Factor XI mRNA, relative to untreated control cells (human Factor XI mRNA [3]; 20 μM) [%]	% inhibition of human Factor XI mRNA levels (human Factor XI mRNA [1]; [5]) [%]	% inhibition of human Factor XI mRNA levels (human Factor XI mRNA [1]; [6]) [%]
416931 (antisense eG*eG*e[5mC]*dA*dT*dT*dG*dG*dT*dG*d[5mC]*dA*d[5mC]*dA*dG*dT*dT*eT*e[5mC]*eT) [compound 416931]	96	44	39	57	71	7	24	60	82		
416941 (antisense eG*eG*e[5mC]*dA*dG*d[5mC]*dG*dG*dA*d[5mC]*dG*dG*d[5mC]*dA*dT*dT*dG*eG*eT*eG) [compound 416941]	95	33	54	63	78	16	38	79	89		
416984 (antisense e[5mC]*eA*dA*d[5mC]*d[5mC]*dG*dG*dG*dA*dT*dG*dA*dT*dG*dA*eG*eT*eG*e[5mC]*eA) [compound 416984]		26	50	62	81	43	54	88	90	89	
416985 (antisense eG*e[5mC]*dA*dA*d[5mC]*d[5mC]*dG*dG*dG*dA*dT*dG*dA*dT*dG*eA*eG*eT*eG*e[5mC]) [compound 416985]		17	30	47	57	12	48	45	69	88	
416989 (antisense eG*eA*dG*dA*dT*dT*d[5mC]*dT*dT*dT*dG*dG*dG*d[5mC]*d[5mC]*eA*eT*eT*e[5mC]*e[5mC]) [compound 416989]		18	41	62	83	32	65	88	94		88
416993 (antisense e[5mC]*eT*dT*dT*dG*dA*dG*dA*dT*dT*d[5mC]*dT*dT*dT*dG*eG*eG*e[5mC]*e[5mC]*eA) [compound 416993]		15	37	50	68	22	48	87	92		91
417000 (antisense eT*eG*d[5mC]*dA*d[5mC]*dA*dG*dT*dT*dT*d[5mC]*dT*dG*dG*d[5mC]*eA*eG*eG*e[5mC]*e[5mC]) [compound 417000]	89	35	47	58	70	46	73	76	89		
